Legend:
Assay in all cases: DSF Tm panel
Type in all cases: binding
Conditions in all cases: 10 μM compound
[1] = molecular target: T1, GSK3BB (Homo sapiens, UniProt P49841)
T1 construct: purchased in-house DSF kinase panel (SGC-style construct names; the trailing letter is the construct ID)
Protocol: (§1) The synthesized urea-based derivatives were evaluated in a panel of kinases by differential scanning fluorescence (DSF) to investigate their selectivity profile. A positive ΔT m in the DSF assay indicates stabilization of the protein upon ligand binding in comparison to its apo state, with higher thermal shifts generally correlating with stronger binding. For this purpose, we used our internal kinase selectivity panel (∼90 kinases) along with staurosporine as a positive control. […] This was also reflected in the overall low selectivity score (S) throughout the series, which is determined by the ratio between the number of kinases that are stabilized above 5 °C and the total number of kinases tested (Figure ). Motivated by these findings, we further validated the entire series by orthogonal binding and activity assays to determine the in vitro and cellular potency and selectivity of the developed series in comparison to the selected reference compounds. […]
(§2) was performed as previously described.[1,2] Briefly, recombinant protein kinase domains at a concentration of 2 μM were mixed with 10 μM compound in a buffer containing 20 mM HEPES, […]
(§3) probe (1 µl per mL). Subsequently, temperature-dependent protein unfolding profiles were […]
(§4) emission filters were set to 465 nm and 590 nm, respectively. The temperature was raised with a step rate of 3 °C per minute. […]
(§5) inflection point of the transition curve. […]
(§6) previously.[3] In brief, STK10, STK3, STK4 and SLK were obtained as plasmids cloned in […]
(§7) Plasmids were transfected into
(§8) KD concentration taken from TracerDB (tracerdb.org)[4] were pipetted into white 384-well

[2] = molecular target: T2, CLK3A (Homo sapiens, UniProt P49761)
T2 construct: purchased in-house DSF kinase panel (SGC-style construct names; the trailing letter is the construct ID)
T2 sequence (P49761 127-484): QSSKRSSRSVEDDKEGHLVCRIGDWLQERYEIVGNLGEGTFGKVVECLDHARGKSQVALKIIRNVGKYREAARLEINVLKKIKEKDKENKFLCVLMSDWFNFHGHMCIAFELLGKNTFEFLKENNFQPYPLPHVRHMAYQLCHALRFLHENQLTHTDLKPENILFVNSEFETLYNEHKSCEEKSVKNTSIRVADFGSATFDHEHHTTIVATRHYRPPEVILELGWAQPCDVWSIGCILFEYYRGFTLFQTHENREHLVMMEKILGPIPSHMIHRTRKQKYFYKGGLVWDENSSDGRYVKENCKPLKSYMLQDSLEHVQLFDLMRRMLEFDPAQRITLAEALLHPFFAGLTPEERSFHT
Protocol: as §1, §2, §3, §4, §5, §6, §7, §8

[3] = molecular target: T3, PIM3A (Homo sapiens, UniProt Q86V86)
T3 construct: purchased in-house DSF kinase panel (SGC-style construct names; the trailing letter is the construct ID)
Protocol: as §1, §2, §3, §4, §5, §6, §7, §8

[4] = molecular target: T4, PLK4A (Homo sapiens, UniProt O00444)
T4 construct: purchased in-house DSF kinase panel (SGC-style construct names; the trailing letter is the construct ID)
T4 sequence (O00444 2-275): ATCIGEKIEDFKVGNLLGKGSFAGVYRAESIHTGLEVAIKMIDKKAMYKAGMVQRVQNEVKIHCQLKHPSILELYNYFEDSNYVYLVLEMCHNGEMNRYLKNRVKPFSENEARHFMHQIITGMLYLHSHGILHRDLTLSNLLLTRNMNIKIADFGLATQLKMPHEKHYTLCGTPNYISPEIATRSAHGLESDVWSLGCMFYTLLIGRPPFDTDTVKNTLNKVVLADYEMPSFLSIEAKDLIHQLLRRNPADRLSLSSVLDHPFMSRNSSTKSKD
Protocol: as §1, §2, §3, §4, §5, §6, §7, §8

[5] = molecular target: T5, FGFR1B (Homo sapiens, UniProt P11362)
T5 construct: purchased in-house DSF kinase panel (SGC-style construct names; the trailing letter is the construct ID)
T5 sequence (P11362 456-767): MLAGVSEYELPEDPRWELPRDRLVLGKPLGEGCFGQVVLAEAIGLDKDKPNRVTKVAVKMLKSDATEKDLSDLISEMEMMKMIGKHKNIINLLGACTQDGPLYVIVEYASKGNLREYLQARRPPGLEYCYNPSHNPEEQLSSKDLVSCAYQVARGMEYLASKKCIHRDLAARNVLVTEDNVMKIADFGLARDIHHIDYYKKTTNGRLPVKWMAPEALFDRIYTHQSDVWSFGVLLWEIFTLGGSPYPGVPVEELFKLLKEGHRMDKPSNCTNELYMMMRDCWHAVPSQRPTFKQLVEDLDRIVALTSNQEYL
Protocol: as §1, §2, §3, §4, §5, §6, §7, §8

[6] = molecular target: T6, CAMK4A (Homo sapiens, UniProt Q16566)
T6 construct: purchased in-house DSF kinase panel (SGC-style construct names; the trailing letter is the construct ID)
T6 sequence (Q16566 1-473): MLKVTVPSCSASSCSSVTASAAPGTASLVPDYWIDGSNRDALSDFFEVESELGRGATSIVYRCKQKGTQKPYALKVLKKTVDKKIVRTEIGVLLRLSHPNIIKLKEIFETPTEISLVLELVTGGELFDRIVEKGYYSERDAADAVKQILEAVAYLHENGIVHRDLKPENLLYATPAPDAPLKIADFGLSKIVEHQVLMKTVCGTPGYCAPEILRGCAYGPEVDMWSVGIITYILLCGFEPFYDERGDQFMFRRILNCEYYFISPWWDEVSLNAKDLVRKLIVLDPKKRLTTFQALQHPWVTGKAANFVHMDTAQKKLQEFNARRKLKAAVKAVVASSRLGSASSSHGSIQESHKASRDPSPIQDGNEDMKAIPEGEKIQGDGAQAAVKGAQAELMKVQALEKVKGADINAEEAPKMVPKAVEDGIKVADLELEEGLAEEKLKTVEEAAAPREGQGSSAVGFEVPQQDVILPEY
Protocol: as §1, §2, §3, §4, §5, §6, §7, §8

[7] = molecular target: T7, TTKA (Homo sapiens, UniProt P33981)
T7 construct: purchased in-house DSF kinase panel (SGC-style construct names; the trailing letter is the construct ID)
T7 sequence (P33981 519-808): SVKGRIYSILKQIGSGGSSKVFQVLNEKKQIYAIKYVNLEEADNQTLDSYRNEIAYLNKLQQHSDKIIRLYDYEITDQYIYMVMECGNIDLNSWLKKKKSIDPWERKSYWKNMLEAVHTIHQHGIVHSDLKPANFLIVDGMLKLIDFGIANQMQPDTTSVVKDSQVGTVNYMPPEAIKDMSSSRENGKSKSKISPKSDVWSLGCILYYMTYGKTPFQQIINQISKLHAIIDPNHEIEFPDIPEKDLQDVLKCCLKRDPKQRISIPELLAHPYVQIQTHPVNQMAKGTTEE
Protocol: as §1, §2, §3, §4, §5, §6, §7, §8

[8] = molecular target: T8, STK6A (Homo sapiens, UniProt O14965)
T8 construct: purchased in-house DSF kinase panel (SGC-style construct names; the trailing letter is the construct ID)
T8 sequence (O14965 122-403): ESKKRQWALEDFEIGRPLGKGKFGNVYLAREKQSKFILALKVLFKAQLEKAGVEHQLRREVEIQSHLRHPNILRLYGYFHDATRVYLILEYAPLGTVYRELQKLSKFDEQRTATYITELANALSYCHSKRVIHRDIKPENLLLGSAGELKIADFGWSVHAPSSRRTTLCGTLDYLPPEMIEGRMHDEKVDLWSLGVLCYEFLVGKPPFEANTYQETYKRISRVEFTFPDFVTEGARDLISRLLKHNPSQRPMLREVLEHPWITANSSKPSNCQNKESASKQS
Protocol: as §1, §2, §3, §4, §5, §6, §7, §8

T1 sequence (P49841 35-386): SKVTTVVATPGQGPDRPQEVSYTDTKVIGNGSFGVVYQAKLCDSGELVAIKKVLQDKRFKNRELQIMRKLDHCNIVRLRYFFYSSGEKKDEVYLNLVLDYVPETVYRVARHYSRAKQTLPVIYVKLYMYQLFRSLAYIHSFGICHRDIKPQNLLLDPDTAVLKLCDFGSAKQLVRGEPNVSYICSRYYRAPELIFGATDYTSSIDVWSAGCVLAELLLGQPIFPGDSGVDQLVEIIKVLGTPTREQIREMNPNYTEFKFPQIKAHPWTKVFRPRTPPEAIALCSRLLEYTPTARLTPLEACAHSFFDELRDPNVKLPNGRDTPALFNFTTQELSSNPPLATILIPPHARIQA

SMILES	ΔTm at 10 µM [1] [°C]	ΔTm at 10 µM [2] [°C]	ΔTm at 10 µM [3] [°C]	ΔTm at 10 µM [4] [°C]	ΔTm at 10 µM [5] [°C]	ΔTm at 10 µM [6] [°C]	ΔTm at 10 µM [7] [°C]	ΔTm at 10 µM [8] [°C]
O=C(NCc1ccc(Cl)cc1)Nc1ccc2cc1OCCOCCNc1ccn3ncc-2c3n1 [compound 19]	0.6	0.4	2.4	2.5	1.5	1	1.4	7.1
Cc1ccc(F)cc1CNC(=O)Nc1ccc2cc1OCCOCCNc1ccn3ncc-2c3n1 [compound 26]	0.5	0.1	4	3.3	1.9	0.8	1.9	6.4
C[C@H](NC(=O)Nc1ccc2cc1OCCOCCNc1ccn3ncc-2c3n1)c1ccccc1 [compound 34]	1.1	0	4.4	4.7	1.2	0.6	1.8	7.7
O=C(NCc1ccccc1C(F)(F)F)Nc1ccc2cc1OCCOCCNc1ccn3ncc-2c3n1 [compound 27]	-0.2	0.2	4.6	3.9	1.3	1.2	3.5	7
O=C(NCc1ccc(Cl)cc1Cl)Nc1ccc2cc1OCCOCCNc1ccn3ncc-2c3n1 [compound 20]	0.6	0.3	3.3	2.8	0.9	0.4	1.2	7.4
COc1ccc(CNC(=O)Nc2ccc3cc2OCCOCCNc2ccn4ncc-3c4n2)cc1 [compound 31]	1	0	4.9	4.9	1.5	1.1	1.8	8
CN1CCN(C(=O)Nc2ccc3cc2OCCOCCNc2ccn4ncc-3c4n2)CC1 [compound 35]	1.7	0.7	1.6	3	0.7	0	0.3	2.4
Cc1cc(Br)ccc1CNC(=O)Nc1ccc2cc1OCCOCCNc1ccn3ncc-2c3n1 [compound 24]	-0.2	0.2	2.8	2.3	1.2	0.8	2.6	5.4
Cc1cc(Cl)ccc1CNC(=O)Nc1ccc2cc1OCCOCCNc1ccn3ncc-2c3n1 [compound 23]	0.4	0.4	2.2	2.8	1.1	0.6	1.8	5.6

More lines, now with the values ahead:

ΔTm at 10 µM [1] [°C]	ΔTm at 10 µM [2] [°C]	ΔTm at 10 µM [3] [°C]	ΔTm at 10 µM [4] [°C]	ΔTm at 10 µM [5] [°C]	ΔTm at 10 µM [6] [°C]	ΔTm at 10 µM [7] [°C]	ΔTm at 10 µM [8] [°C]	SMILES
1.6	0.5	5.1	5.5	1.9	1	2	9.9	COc1cc(CNC(=O)Nc2ccc3cc2OCCOCCNc2ccn4ncc-3c4n2)ccc1F [compound 33]
1	0.1	2.4	3.9	0.6	0.6	1.8	6.7	O=C(NCc1ccccc1Cl)Nc1ccc2cc1OCCOCCNc1ccn3ncc-2c3n1 [compound 17]
1.2	0.2	3.9	3	1.4	0.6	1.4	5.6	COc1ccccc1CNC(=O)Nc1ccc2cc1OCCOCCNc1ccn3ncc-2c3n1 [compound 29]
0.2	0.6	3.9	2.6	1.1	0.9	1.8	6.9	O=C(NCc1ccc(Cl)cc1F)Nc1ccc2cc1OCCOCCNc1ccn3ncc-2c3n1 [compound 21]
1.1	0.3	2.4	4.1	2.4	0.5	1.5	7.5	O=C(NCc1ccccc1)Nc1ccc2cc1OCCOCCNc1ccn3ncc-2c3n1 [compound 16]
0.6	0.2	-4.8	4.6	1.2	0.9	2.4	7.6	COc1ccc(CNC(=O)Nc2ccc3cc2OCCOCCNc2ccn4ncc-3c4n2)cc1F [compound 32]
0	0.3	3	3.2	2	1.3	2.2	7.3	O=C(NCc1cccc(Cl)c1)Nc1ccc2cc1OCCOCCNc1ccn3ncc-2c3n1 [compound 18]
0.2	0.4	4.3	3.3	1.5	1	3.1	7.6	O=C(NCc1ccc(C(F)(F)F)cc1)Nc1ccc2cc1OCCOCCNc1ccn3ncc-2c3n1 [compound 28]
1.3	0.2	4.1	3.5	1.4	0.8	1.6	7.4	COc1cccc(CNC(=O)Nc2ccc3cc2OCCOCCNc2ccn4ncc-3c4n2)c1 [compound 30]
